SMILES strings stand for the structures. Active and inactive are the calls of the source. How the calls were made is not given here.

The values below come from PubChem BioAssay AID1259411 (Chemical Carcinogenesis Research Information System (CCRIS), 2018).

The subject of the series is rodent carcinogenicity bioassays, tumor incidence. Kind of series: CCRIS carcinogenicity studies. The settings on record: Route: INHALATION, Dose: 0. In a few lines: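 NCI-built, expert-reviewed records of carcinogenicity and related test outcomes (mutagenicity, tumor promotion/inhibition) compiled from published and report sources, historical span 1985-2011, not updated.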

In the case of `C`, the carcinogen call (Species: MOUSE, Strain/Sex: NMRI/FEMALE, 7.4 MG/M3 18 HR/D 5 D/WK FOR 4 MO INCREASED TO 12.2 MG/M3 FOR 9.5 MO FOLLOWED BY CLEAN AIR FOR 9.5 MO (STUDY DURATION) is “inactive; negative”; the carcinogen call (Species: RAT, Strain/Sex: F344/FEMALE, 2.5, 6.5 MG/M3 IN AIR 16 HR/D 5 D/WK FOR 24 MO (STUDY DURATION: 25.5 MO), 2.5, 6.5 MG/M3 IN AIR 16 HR/D 5 D/WK FOR 24 MO (STUDY DURATION: 25.5 MO), Tumor Site: Type of Lesion: LUNG: BENIGN OR MALIGNANT NEOPLASM) is “active; positive”; the carcinogen call (Species: RAT, Strain/Sex: F344/FEMALE, 2.5, 6.5 MG/M3 OF AIR 16 HR/D 5 D/WK FOR UP TO 24 MO (STUDY DURATION: LIFE SPAN), 2.5, 6.5 MG/M3 OF AIR 16 HR/D 5 D/WK FOR UP TO 24 MO (STUDY DURATION: LIFE SPAN), Tumor Site: Type of Lesion: LUNG: MALIGNANT TUMOR) was “active; positive”; the carcinogen call (Species: RAT, Strain/Sex: F344/MALE, 2.5, 6.5 MG/M3 IN AIR 16 HR/D 5 D/WK FOR 24 MO (STUDY DURATION: 25.5 MO), 2.5, 6.5 MG/M3 IN AIR 16 HR/D 5 D/WK FOR 24 MO (STUDY DURATION: 25.5 MO)) is “inactive; negative”; the carcinogen call (Species: RAT, Strain/Sex: F344/MALE, 2.5, 6.5 MG/M3 OF AIR 16 HR/D 5 D/WK FOR UP TO 24 MO (STUDY DURATION: LIFE SPAN), 2.5, 6.5 MG/M3 OF AIR 16 HR/D 5 D/WK FOR UP TO 24 MO (STUDY DURATION: LIFE SPAN), Tumor Site: Type of Lesion: LUNG: MALIGNANT TUMOR) is “active; positive”; the carcinogen call (Species: RAT, Strain/Sex: WISTAR/FEMALE, 7.4 MG/M3 18 HR/D 5 D/WK FOR 4 MO INCREASED TO 12.2 MG/M3 FOR 20 MO FOLLOWED BY CLEAN AIR FOR 6 MO (STUDY DURATION: 3, Tumor Site: Type of Lesion: LUNG: TUMOR) is “active; positive”.
